The assay addresses T1, LTA4H (Homo sapiens, UniProt P09960).
T1 sequence (P09960 1-611): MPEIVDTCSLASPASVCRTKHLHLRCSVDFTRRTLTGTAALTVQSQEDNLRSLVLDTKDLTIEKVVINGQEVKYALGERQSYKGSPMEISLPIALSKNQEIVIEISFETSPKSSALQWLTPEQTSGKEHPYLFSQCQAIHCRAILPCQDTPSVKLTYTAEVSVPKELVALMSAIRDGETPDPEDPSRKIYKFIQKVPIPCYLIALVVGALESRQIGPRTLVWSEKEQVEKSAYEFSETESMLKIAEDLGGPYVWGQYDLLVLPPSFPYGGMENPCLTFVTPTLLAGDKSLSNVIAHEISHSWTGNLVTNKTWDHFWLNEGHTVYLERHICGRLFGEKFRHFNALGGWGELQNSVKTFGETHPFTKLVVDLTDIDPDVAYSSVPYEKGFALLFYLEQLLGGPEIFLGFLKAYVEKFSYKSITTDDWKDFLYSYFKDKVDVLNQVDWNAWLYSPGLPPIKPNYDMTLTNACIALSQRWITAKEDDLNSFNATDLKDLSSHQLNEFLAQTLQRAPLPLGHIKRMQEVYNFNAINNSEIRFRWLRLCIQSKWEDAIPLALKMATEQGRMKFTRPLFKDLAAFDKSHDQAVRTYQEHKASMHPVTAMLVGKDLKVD
Briefly: In vitro inhibition of epoxide hydrolase enzymatic activity of LTA4H (LTB4 production). The class given is biochemical.

In general, IC50 refers to the concentration that inhibits the measured activity by half. As to `O=C(O)c1ccc(CN2C[C@@H]3C[C@H]2CN3Cc2ccc(Oc3ccc(-c4ncco4)cc3)cc2)cc1` [acebilustat, 4-{[(1 S,4S)-5-({4-[4-oxazol-2-yl-phenoxy]phenyl}methyl)-2,5-diazabicyclo[2.2.1]heptan-2-yl]methyl}benzoic acid], the midpoint of inhibition, the IC50, lay at 13.1 nM. This counts as double-digit nanomolar.

The values above are taken from US20220288034A1, “METHOD OF REDUCING ABERRANT IMMUNE RESPONSE OR RISK OF PROGRESSION IN COVID-19” (CELLTAXIS, LLC, priority 2021, published 2022).
